Measured values published in paper PMC6522941, “Design, synthesis, and anticancer evaluation of novel quinoline derivatives of ursolic acid with hydrazide, oxadiazole, and thiadiazole moieties as potent MEK inhibitors” (Journal of Enzyme Inhibition and Medicinal Chemistry, 2019).

Columns and labels:
HeLa cells [1] = test: MTT cytotoxic assay, HeLa; type: cell-based; conditions: Homo sapiens, 72 h
Method: (§1) Human breast cancer cell line (MDA-MB-231), cervical carcinoma cell line (HeLa), the liver cancer cell line (SMMC-7721) and normal hepatocyte cell line (QSG-7701) were maintained in Dulbecco Modified Eagle Medium (DMEM) containing 4.0 mM L-Glutamine and 4500 mg/L Glucose supplemented with 10% (v/v) foetal bovine serum (FBS) and 100 U/mL penicillin/streptomycin at 37 °C in humidified atmosphere of 5% CO2 and 95% air.
(§2) Exponentially growing MDA-MB-231, Hela and SMMC-7721 cell lines were seeded into 96-well plate for 100 μL and treated with different concentrations of the synthetic compounds for 72 h, and then 10 μL of MTT (10 mg/mL) was added and incubation for 3 ∼ 4 h at 37 °C. The generated purple formazan crystals from viable can be dissolved by adding 100 μL DMSO. The plates were swirled gently for 5 min and quantified by measuring the OD of the plates at the wavelength of 540 nm. Each concentration was repeated in three wells and the same experimental condition was provided for all compounds. The results were expressed as IC50 values with standard deviations, which was defined as the concentration at which 50% survival of cells was discerned. Etoposide was co-assayed as positive control.
(§3) The in vitro cytotoxic activity of derivatives 3a–d, 4a–h, 5a–h, and 6a–h were evaluated by MTT assay against human breast cancer cell line (MDA-MB-231), cervical carcinoma cell line (HeLa), hepatocarcinoma cell line (SMMC-7721) and human normal hepatocyte cell line (QSG-7701). The anticancer drug etoposide was co-assayed as the positive control. All tested compounds were dissolved in DMSO and the stock solutions were diluted by DMEM medium before treatment of the cultured cells.

SMMC-7721 cells = test: MTT cytotoxic assay, SMMC-7721; type: cell-based; conditions: Homo sapiens, 72 h
Method: as §1, §2, §3

HeLa cells [2] = test: Cell cycle analysis (PI staining, flow cytometry); type: cell-based, human; conditions: 0.2 μM, 48 h
Method: Cell cycle distributions in HeLa cells were determined through PI staining and analysed by flow cytometry. HeLa cells were seeded into a six-well plate at 5 × 10^5 cell/mL and treated with different concentrations of compound 4d for 48 h. After treatment, cells were detached with 0.25% trypsin, harvested by centrifugation, washed twice with ice-cold PBS and then fixed and permeabilised with ice-cold 70% ethanol at 4 °C overnight. Ethanol was removed and the cells were washed twice with ice-cold PBS. After this, the cells were treated with 100 μL of RNase (100 μg/mL) at 37 °C for 30 min, followed by incubation with 400 μL of DNA staining solution propidium iodide (PI) (1 mg/mL) in the dark at 4 °C for 30 min. The samples were analysed by a flow cytometer (Becton-Dickinson FACSCalibur, Totowa, NJ, USA) and data were analysed using the FlowJo software (Becton-Dickinson & Co, Totowa, NJ, USA).
Cell cycle distribution in HeLa cells was examined to determine whether or not compound 4d inhibited the proliferation of these cells through cell cycle arrest. HeLa cells were treated with different concentrations of compound 4d (0, 0.05, 0.1, and 0.2 μM) for 48 h. Cell cycle distribution was investigated by flow cytometric analysis after staining the DNA of the treated cells by PI. […] This phenomenon was accompanied by a decrease in the population of cells in G2/M phase.

MEK1 = target: T1, MEK1 (Homo sapiens, UniProt Q02750); test: In vitro MEK1 kinase assay (ADP-Glo); type: biochemical; conditions: recombinant GST-MEK1, GST-ERK2 (inactive) substrate, 10 μM ATP
T1 construct: purchased Carna Biosciences, Kobe, Japan
T1 sequence (Q02750 whole entry): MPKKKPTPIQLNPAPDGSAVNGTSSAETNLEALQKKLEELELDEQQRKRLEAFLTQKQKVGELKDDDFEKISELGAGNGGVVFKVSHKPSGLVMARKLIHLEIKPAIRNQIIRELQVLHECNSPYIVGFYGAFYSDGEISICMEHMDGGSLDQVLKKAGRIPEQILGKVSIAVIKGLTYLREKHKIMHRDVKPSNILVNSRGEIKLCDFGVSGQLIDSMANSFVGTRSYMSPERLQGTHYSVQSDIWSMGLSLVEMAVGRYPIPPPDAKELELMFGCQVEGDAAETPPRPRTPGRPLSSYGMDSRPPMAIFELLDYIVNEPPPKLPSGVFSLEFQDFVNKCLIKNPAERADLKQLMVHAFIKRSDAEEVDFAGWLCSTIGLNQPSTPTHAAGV
Method: An in vitro kinase assay of MEK1 was performed using ADP-Glo kinase assay (Promega, Madison, WI, USA) according to the manufacturer’s protocol. […] Reactions were stopped by adding 5 μL of ADP-Glo reagent to each well. After incubating at 22 °C for 40 min, 10 μL of the kinase detection reagent was added and the plates were incubated for another 30 min at 22 °C in the dark. The reaction mixture was analysed by EnSpire (PerkinElmer, Waltham, MA, USA).
The Raf/MEK/ERK pathway is the downstream of Ras activation, and the abnormal expression or phosphorylation of the associated proteins is essential for cancer cell proliferation. In this pathway, MEK kinase is an important anticancer target because of its key roles in regulating the cancer cell apoptosis and oncogenic transformation[51]^,[52]. Among MEK proteins, MEK1 and MEK2 are known as substrate-specific kinases which phosphorylate their downstream kinase ERK1/2.

HeLa cells [3] = test: JC-1 mitochondrial membrane potential assay; type: cell-based, human; conditions: 24 h, control 7.59
Method: The JC-1 mitochondrial membrane potential assay kit (Keygene Biotech., Nanjing, China) was employed to measure mitochondrial depolarisation in HeLa cells. Briefly, cells cultured in six-well plates after indicated treatments by compound 4d were incubated with an equal volume of JC-1 staining solution (5 μg/mL) at 37 °C for 20 min and rinsed twice with PBS. Mitochondrial membrane potentials were monitored by determining the relative amounts of dual emissions from mitochondrial JC-1 monomers or aggregates using flow cytometry (Becton-Dickinson FACSCalibur, New York, NY, USA). Mitochondrial membrane depolarisation is indicated by an increase in the percentage of cells with low ΔΨm (green fluorescence and lower right quadrant) compared with cells with high ΔΨm (red fluorescence and upper right quadrant).
As a kind of important organelle, Mitochondria play indispensable roles not only on supplying metabolic energy in the form of ATP, but also on regulating the signal transmission during the apoptosis of cancer cells. In addition, the mitochondrial dysfunction can be aroused under high ROS exposure, leading to the collapse of mitochondrial membrane potential (ΔΨm), which is a characteristic phenomenon of early apoptosis. Loss of ΔΨm can be detected using the fluorescent cationic dye JC-1, which spontaneously forms red fluorescent dimers (J aggregates) under high ΔΨm, whereas its monomeric form showing green fluorescence is prevalent in cells with low ΔΨm. Green and red fluorescence can be observed at 527 and 590 nm, respectively. Thus, changes in the green/red fluorescence ratio reflect the variation in ΔΨm, which can be quantitatively analysed by flow cytometry.

With CC(=O)NNC(=O)C12CCC(C)C(C)C1C1=CCC3C4(C)Cc5cc6cc(Cl)ccc6nc5C(C)(C)C4CCC3(C)C1(C)CC2 (centres unmarked) [Compound 4d, N-[5′-chloro-ursa-12-en-(2,3)-quinoline-28-oyl]-acetohydrazide] the IC50 (HeLa cells [1]) was 0.08 ± 0.01 µM, the IC50 (SMMC-7721 cells) was 0.34 ± 0.03 µM and the “population of cells in G2/M phase” value (HeLa cells [2]; control 25.95) was 8.51%. The “population of cells in G0/G1 phase” value (HeLa cells [2]; control 48.32) was 63.75%, the IC50 (MEK1) was 64 nM and the “Cells with low ΔΨm (green fluorescence, lower right quadrant)” value (HeLa cells [3]; 0.05 μM) was 36.33%. For the same molecule, the “Cells with low ΔΨm (green fluorescence, lower right quadrant)” value (HeLa cells [3]; 0.1 μM) was 54.08% and the “Cells with low ΔΨm (green fluorescence, lower right quadrant)” value (HeLa cells [3]; 0.2 μM) was 70.83%.
